Reference: US20140322278A1, “Modulation of Tissue Transglutaminase Activation in Disease” (The Board of Trustees of the Leland Stanford Junior …, priority 2011, published 2014)
Entries after “also recorded” stand apart in the source; their conditions may differ.

Assays:
[1] = biological target: T1, human thioredoxin (Homo sapiens, UniProt P10599); assay: Inhibition of human thioredoxin by disulfide analogs of PX-12 (kinh/Ki); assay type: biochemical; settings: for Trx kinh/Ki: human thioredoxin, bimolecular parameter estimating potency; for Trx/DTT: ratio of reactivity towards Trx relative to DTT (selectivity)
T1 construct: made in house; host or cells: E. coli
T1 sequence (P10599 1-105): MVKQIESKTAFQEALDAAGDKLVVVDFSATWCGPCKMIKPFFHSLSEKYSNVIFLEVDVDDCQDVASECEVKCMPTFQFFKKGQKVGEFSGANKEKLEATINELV

[2] = Reactivity of disulfide inhibitors towards dithiothreitol
[3] = biological target: T2, human TG2 (Homo sapiens, UniProt P21980); assay: TG2 inhibition kinetics (kinh/Ki); assay type: biochemical
T2 sequence (P21980 1-687): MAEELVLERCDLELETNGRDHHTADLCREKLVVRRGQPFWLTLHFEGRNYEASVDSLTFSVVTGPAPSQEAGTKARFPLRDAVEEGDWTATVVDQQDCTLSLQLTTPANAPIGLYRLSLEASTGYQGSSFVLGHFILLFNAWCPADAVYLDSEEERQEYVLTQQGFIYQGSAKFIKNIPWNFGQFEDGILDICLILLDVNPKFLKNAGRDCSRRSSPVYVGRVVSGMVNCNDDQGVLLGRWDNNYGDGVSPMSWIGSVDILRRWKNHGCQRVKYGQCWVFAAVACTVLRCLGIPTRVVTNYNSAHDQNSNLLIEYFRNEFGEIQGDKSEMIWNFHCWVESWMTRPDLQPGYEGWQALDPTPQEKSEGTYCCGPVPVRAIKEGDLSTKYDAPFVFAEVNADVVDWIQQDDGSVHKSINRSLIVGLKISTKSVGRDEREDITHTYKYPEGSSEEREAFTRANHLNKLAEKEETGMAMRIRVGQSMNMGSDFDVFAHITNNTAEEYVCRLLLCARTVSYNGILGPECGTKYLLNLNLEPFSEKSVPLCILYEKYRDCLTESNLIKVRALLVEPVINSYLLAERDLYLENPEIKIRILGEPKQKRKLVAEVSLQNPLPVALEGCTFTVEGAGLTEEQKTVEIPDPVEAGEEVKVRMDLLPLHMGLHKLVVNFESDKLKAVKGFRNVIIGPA

[4] = biological target: T3, human transglutaminase 1 (TG1) (Homo sapiens, UniProt P22735); assay: TG1 inhibition kinetics (kinh/Ki); assay type: biochemical
T3 sequence (P22735 1-817): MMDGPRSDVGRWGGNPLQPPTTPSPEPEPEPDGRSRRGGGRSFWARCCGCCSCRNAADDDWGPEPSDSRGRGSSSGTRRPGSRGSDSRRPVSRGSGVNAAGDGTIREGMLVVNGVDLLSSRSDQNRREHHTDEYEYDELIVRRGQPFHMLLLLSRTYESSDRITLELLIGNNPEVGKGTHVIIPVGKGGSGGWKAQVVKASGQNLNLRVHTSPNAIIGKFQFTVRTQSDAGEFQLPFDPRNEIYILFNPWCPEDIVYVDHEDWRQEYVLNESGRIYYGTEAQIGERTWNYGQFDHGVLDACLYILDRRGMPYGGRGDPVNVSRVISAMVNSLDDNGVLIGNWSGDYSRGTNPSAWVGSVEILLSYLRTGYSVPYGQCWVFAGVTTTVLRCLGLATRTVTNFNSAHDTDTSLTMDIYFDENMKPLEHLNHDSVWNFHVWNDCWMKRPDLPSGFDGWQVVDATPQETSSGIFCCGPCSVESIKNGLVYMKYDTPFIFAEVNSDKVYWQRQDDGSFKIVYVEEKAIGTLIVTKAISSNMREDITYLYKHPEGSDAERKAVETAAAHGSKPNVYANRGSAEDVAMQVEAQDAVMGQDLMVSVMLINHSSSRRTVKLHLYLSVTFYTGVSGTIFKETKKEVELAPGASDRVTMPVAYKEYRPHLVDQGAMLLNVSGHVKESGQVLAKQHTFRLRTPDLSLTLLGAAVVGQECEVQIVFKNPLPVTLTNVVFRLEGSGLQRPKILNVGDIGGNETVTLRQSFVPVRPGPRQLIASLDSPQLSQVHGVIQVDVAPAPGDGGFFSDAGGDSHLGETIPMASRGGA

[5] = tested on: TG2 activation in T84 monolayers; assay: IFN-γ induced TG2 activation in T84 monolayers, 5BP incorporation ELISA; assay type: cell-based, human; settings: IFN-γ up to 1000 U/mL, 25 μM ERW1041E
Method: FIG. 2. Dose and time dependence of TG2 activation in response to IFN-γ treatments of T84 monolayers measured in a quantitative enzyme linked immunosorbent type assay. T84 monolayers were treated for 1 to 72 hrs at 0-1000 U/mL IFN-γ with or without TG2 inhibition using 25 μM ERW1041E. TG2 activation was quantified by the amount of 5BP crosslinked to native proteins in the T84 cells as measured by tetramethylbenzidine turnover via streptavidin-HRP labeling. 5BP incorporation is dependent on IFN-γ exposure concentration. […] Data reported as mean+/−standard deviation.
FIG. 3. […] (B) Dose and time dependence of TG2 activation in response to IFN-γ treatments of T84 monolayers measured in a quantitative enzyme linked immunosorbent type assay. […] TG2 activation was quantified by the amount of 5BP crosslinked to native proteins in the T84 cells as measured by tetramethylbenzidine turnover via streptavidin-HRP labeling. […]
In addition to increasing the paracellular permeability of antigenic gluten peptides, we sought to determine if IFN-γ could activate TG2 in the extracellular matrix of mature T84 monolayers. […] To quantify the extent to which IFN-γ activates TG2 in the T84 model system, an enzyme linked immunosorbent assay (ELISA) was developed, using streptavidin conjugated to horseradish peroxidase. […]

[6] = tested on: TG2 activation in T84 monolayers; assay: Thioredoxin-induced TG2 activation in T84 monolayers, 5BP incorporation ELISA; assay type: cell-based, human; settings: thioredoxin 0-10 μM, 3 hrs, 25 μM ERW1041E
Method: (§1) FIG. 7. Dose dependence of TG2 activation in response to recombinant human thioredoxin treatments of T84 and WI-38 monolayers measured in a quantitative enzyme linked immunosorbent type assay. Cellular monolayers were treated for 3 hrs at 0-10 μM thioredoxin with or without TG2 inhibition using 25 μM ERW1041E or with or without using 0-50 μM thioredoxin inhibitor PX-12. TG2 activation was quantified by the amount of 5BP crosslinked to native proteins in the extracellular matrix of cultured monolayers as measured by tetramethylbenzidine turnover via streptavidin-HRP labeling. (A) and (B) Illustrate the dependence of 5BP incorporation on thioredoxin exposure concentration in T84 and WI-38 cells, respectively. […] (C) and (D) Illustrate the dependence of 5BP incorporation on the ability of thioredoxin to activate TG2. TG2 activation was highest for control experiments with 0 μM PX-12. The amount of PX-12 required to reduce the 5BP incorporation in half at saturating concentrations of 3 μM thioredoxin in T84 and WI-38 cultures was 11 μM and 5 μM PX-12, respectively. […] Data reported as mean+/−standard deviation.
(§2) To test whether recombinant human thioredoxin could directly activate TG2 in cell culture, we used T84 and WI-38 monolayers in similar assays as described herein. T84 and WI-38 cells were grown into mature monolayers at which point varying amounts of pre-reduced thioredoxin were added to the culture medium along with 5BP and/or small molecule inhibitors, such as the TG2 inhibitor, ERW1041E, or the thioredoxin inhibitor, PX-12. 5BP incorporated into the extracellular matrix of cultured monolayers via activated TG2 was then quantified.

[7] = tested on: TG2 activation in WI-38 monolayers; assay: Thioredoxin-induced TG2 activation in WI-38 monolayers, 5BP incorporation ELISA; assay type: cell-based, human; settings: thioredoxin 0-10 μM, 3 hrs, 25 μM ERW1041E
Method: as §1, §2

Structure (SMILES)	Trx kinh/Ki [1]	Trx/DTT [1]	DTT k [2] [M⁻¹ s⁻¹]	kinh/Ki TG2 [3] [M⁻¹ s⁻¹]	also measured
CC(C)SSc1nc2ccccc2[nH]1 [compound 8]	5500 M⁻¹ s⁻¹	72	76.7	–	–
CCC(C)SSc1nc2ccncc2[nH]1 (stereo not shown) [compound 10]	3170 M⁻¹ s⁻¹	85	36.7	–	–
O=C(NC[C@@H]1CC(Br)=NO1)[C@@H]1Cc2ccccc2CN1C(=O)OCc1cnc2ccccc2c1 [compound 24]	–	–	–	130	–
CCC(C)SSc1nc2cc([N+](=O)[O-])ccc2s1 (stereo not shown) [compound 16]	5830 M⁻¹ s⁻¹	175	33.3	–	–
CC(C)(C)SSc1nc2ccccc2[nH]1 [compound 6]	–	–	~0.467	–	–
O=C(NC[C@@H]1CC(Br)=NO1)[C@@H]1C[C@@H](OCc2ccccc2)CN1C(=O)OCc1cnc2ccccc2c1 [compound 22]	–	–	–	128.5	–
C#CCO[C@@H]1C[C@@H](C(=O)NC[C@@H]2CC(Br)=NO2)N(C(=O)OCc2cnc3ccccc3c2)C1 [compound 23]	–	–	–	142	kinh/Ki TG1 [4]: 72.33 M⁻¹ s⁻¹
CCC(C)SSc1nccs1 (stereo not shown) [compound 14]	833 M⁻¹ s⁻¹	68	12.3	–	–
CCC(C)SSc1nc2cccc(C)c2s1 (stereo not shown) [compound 17]	817 M⁻¹ s⁻¹	82	10	–	–
c1ccc2[nH]c(SSC3CCCC3)nc2c1 [compound 5]	4000 M⁻¹ s⁻¹	74	53.3	–	–
O=C(NC[C@@H]1CC(Br)=NO1)[C@@H]1CCCCN1C(=O)OCc1cnc2ccccc2c1 [compound 26]	–	–	–	138.3	kinh/Ki TG1 [4]: 384.87 M⁻¹ s⁻¹
O=C(NC[C@@H]1CC(Br)=NO1)[C@@H]1C[C@@H](F)CN1C(=O)OCc1cnc2ccccc2c1 [compound 18]	–	–	–	120.8	kinh/Ki TG1 [4]: 111.6 M⁻¹ s⁻¹
CCC(C)SSc1nc2ccccc2o1 (stereo not shown) [compound 12]	40000 M⁻¹ s⁻¹	392	102	–	–
CCSSc1nc2ccccc2[nH]1 [compound 4]	–	–	900	–	–
CCC(C)SSc1ccccn1 (stereo not shown) [compound 13]	inactive	–	0.617	–	–
O=C(NC[C@@H]1CC(Br)=NO1)[C@@H]1CCCN1C(=O)OCc1cnc2ccccc2c1 [compound 2]	–	–	–	283.15	kinh/Ki TG1 [4]: 220.37 M⁻¹ s⁻¹; TG2 activation (5BP incorporation) [5]: completely blocked 5BP incorporation; also recorded: reduced to basal levels; TG2 activation (5BP incorporation) in response to thioredoxin [6]: completely negates; also recorded: reduced to basal levels; TG2 activation (5BP incorporation) in response to thioredoxin [7]: completely negates; also recorded: reduced to basal levels
CCC(C)SSc1nc2ccccc2[nH]1 (stereo not shown) [compound 3]	3170 M⁻¹ s⁻¹	39	80	–	–
CCC(C)SSc1nc2cc(Cl)ccc2s1 (stereo not shown) [compound 15]	250 M⁻¹ s⁻¹	88	2.83	–	–
CCC(C)SSc1nc2cc([N+](=O)[O-])ccc2[nH]1 (stereo not shown) [compound 9]	14500 M⁻¹ s⁻¹	362	40	–	–
c1ccc2[nH]c(SSC3CCCCC3)nc2c1 [compound 7]	6330 M⁻¹ s⁻¹	83	76.7	–	–
O=C(NC[C@@H]1CC(Br)=NO1)[C@@H]1C[C@H](F)CN1C(=O)OCc1cnc2ccccc2c1 [compound 19]	–	–	–	223.93	kinh/Ki TG1 [4]: 100.7 M⁻¹ s⁻¹
O=C(NC[C@@H]1CC(Br)=NO1)[C@@H]1Cc2c([nH]c3ccccc23)CN1C(=O)OCc1cnc2ccccc2c1 [compound 25]	–	–	–	346.67	–
O=C(NC[C@@H]1CC(Br)=NO1)[C@@H]1C[C@@H](O)CN1C(=O)OCc1cnc2ccccc2c1 [compound 20]	–	–	–	208.52	kinh/Ki TG1 [4]: 73.12 M⁻¹ s⁻¹
